US11596615B2, “Compositions and methods for treatment of insulin resistance” (Temple University—Of The Commonwealth System Of Higher …, priority 2016, dated 2023)
Counter-ions that a name gives are not always drawn.

Assays:
3T3-L1 adipocytes [1] = experiment: Effect of 4-HNE and H2O2 on insulin-induced glucose uptake by 3T3-L1 adipocytes; assay type: cell-based, mouse; settings: 500 μM for 4 hour, then 100 nM insulin 60 minutes; FIG. 2
Description: 3T3-L1 adipocytes (1×10^6) were treated with either 500 μM of 4-HNE or H2O2 or combination of both for 4 hour and were then stimulated with 100 nM insulin for 60 minutes. The glucose uptake was measured by a specific MRM method.

GLUT4 = GLUT4 carbonylation (K264-HNE adduct) in 3T3-L1 cells overexpressing GLUT4, MRM; assay type: cell-based; settings: 20 μM for 4 hour, FIG. 1A-1B
Description: A GLUT4-SNAP fusion construct was generated. 3T3-L1 adipocytes were then retrovirally transduced with the construct to overexpress the GLUT4-SNAP protein. Twenty-four hours after the transduction, the cells were treated with and without 20 μM of 4-HNE for an additional 4 hours. This 4-HNE dose was chosen because it was similar to the physiological levels and was non-toxic. In order to identify and quantitate GLUT4 carbonylation (K264 NHE-adduct or R265 and R246 glutamic semialdehyde adducts), a mass spectroscopy-based multiple reaction monitoring (MRM) method was developed and validated.

3T3-L1 adipocytes [2] = experiment: Restoring glucose uptake in insulin-stimulated 3T3-L1 cells exposed to 4-HNE and H2O2 (FIG. 13); assay type: cell-based, mouse; settings: 10 μM pretreatment 12 hours, then 4HNE and H2O2 4 hours; for glucose uptake impairment induced by 4-HNE and H2O2: FIG. 13
Description: Insulin-stimulated 3T3-L1 adipocytes were pretreated with the drug (S)-2-amino-6-((3-aminopropyl)amino)hexanoic acid dihydrochloride (10 μM) for 12 hours followed by exposure to 4HNE and H2O2 for an additional 4 hours. The amounts of glucose taken up by the 3T3-L1 adipocytes were measured by the MRM methods described above. The results in FIG. 13 show the effect of the drug in restoring glucose uptake in insulin-stimulated 3T3-L1 cells exposed to 4-HNE and H2O2: Control cells, no insulin (C− No Ins); control cells, with insulin (C+ Ins); 4HNE+H2O2-treated cells (4HNE/H2O2) and cells treated with drug+4HNE+H2O2 (“APL”).
Insulin-stimulated 3T3-L1 adipocytes were pretreated with the drug (S)-2-amino-5-((6-aminohexyl)amino)pentanoic acid dihydrochloride (10 μM) for 12 hours followed by exposure to 4HNE and H2O2 for an additional 4 hours. The amounts of glucose taken up by the 3T3-L1 adipocytes were measured by the MRM methods described above. FIG. 13 includes the results: cells treated with (S)-2-amino-5-((6-aminohexyl)amino)pentanoic acid trihydrochloride (MC-180351).
Insulin-stimulated 3T3-L1 adipocytes were pretreated with the drug (S)-2-amino-5-(([…])amino)pentanoic acid dihydrochloride (10 μM) for 12 hours followed by exposure to 4HNE and H2O2 for an additional 4 hours. The amounts of glucose taken up by the 3T3-L1 adipocytes were measured by the MRM methods described above. FIG. 13 includes the results: cells treated with (S)-2-amino-5-((5-aminopentyl)amino)pentanoic acid trihydrochloride (MC-180352).

Compound	reduction of glucose uptake (3T3-L1 adipocytes [1])	formation of K264-HNE GLUT4 adduct (GLUT4)	GLUT4 carbonylations (3T3-L1 adipocytes [2])	glucose uptake impairment induced by 4-HNE and H2O2 (3T3-L1 adipocytes [2])
CCCCCC(O)/C=C/C=O (stereo not shown) [Example 4-HNE, 4-hydroxynonenal]	32%	induced the formation of the K264-HNE adduct	–	–
OO [Example H2O2, H2O2]	66%	–	–	–
NCCCCCCNCCC[C@H](N)C(=O)O [MC-180351, (S)-2-amino-5-((6-aminohexyl)amino)pentanoic acid trihydrochloride]	–	–	reduce GLUT4 carbonylations	prevent glucose uptake impairment induced by 4-HNE and H2O2
NCCCCCNCCC[C@H](N)C(=O)O [MC-180352, (S)-2-amino-5-((5-aminopentyl)amino)pentanoic acid trihydrochloride]	–	–	reduce GLUT4 carbonylations	prevent glucose uptake impairment induced by 4-HNE and H2O2
